What all share (type): cell-based
Assay [1] concerns MKN45 cells. The assay can be described thus: Gastric cancer cell proliferation inhibitory activity (CellTiter Glo), MKN45. As to conditions: Homo sapiens, MKN-45, 72 hours, relative IC50. How it is done: (§1) Experiments were performed using four types of gastric cancer cell lines (AGS, SNU-1, KATO-III, and MKN45) to measure the cell proliferation inhibitory ability of each Example compound. For AGS cells, 90 µL of cell suspension was dispensed into a 96-well plate using F-12K (Gibco) medium containing 10 % FBS, followed by incubation in a cell incubator at 37 °C and 5 % CO2. For SNU-1 and MKN45 cells, 90 µL of cell suspension was dispensed into a 96-well plate using RPMI1640 (Gibco) medium containing 10 % FBS, followed by incubation in a cell incubator at 37 °C and 5 % CO2. For KATO-III cells, 90 uL of cell suspension was dispensed into a 96-well plate using IMDM (Gibco) medium containing 10 % FBS, followed by incubation in a cell incubator at 37 °C and 5 % CO2. The next day, each Example compound dissolved and diluted in DMSO across 9 concentration ranges and a DMSO control group were added at 10 µL to each 96-well plate and treated for 72 hours. After completion of the compound treatment, 100 µL of CellTiter Glo (Promega) reagent was added to each well of the 96-well plate, followed by shaking for 10 minutes and standing at room temperature for 10 minutes. Luminescence signals were measured after inserting the 96-well plate into an Envision plate reader (PerkinElmer). Relative IC50 values were calculated by fitting a dose-response curve using XLfit (IDBS Ltd) software.
(§2) The gastric cancer cell proliferation inhibitory activities of the Example compounds measured by the method described above were evaluated according to the following criteria, and the results are presented in Table 16.

Assay [2] deals with Cyclin K. The assay is described as follows: Analysis of Cyclin K degradation ability in HCC70 breast cancer cells (western blot). The following applies: 8 hours, compared to the negative control group (DMSO), FIGs. 1 to 3. How it is done:
In order to confirm the Cyclin K degradation ability of the Example compounds, HCC70 breast cancer cells and MKN45 gastric cancer cells were cultured in RPMI-1640 medium supplemented with 10 % FBS, and then the cells were collected to prepare cell suspensions. The HCC70 breast cancer cell suspension was dispensed at a cell number of 2.0 X 10^6 per 6-well and cultured in a 5 % CO2 cell incubator at 37 °C for 24 hours, and the MKN45 gastric cancer cell suspension was dispensed at a cell number of 5.0 X 10^6 per 6-well and cultured in a 5 % CO2 cell incubator at 37 °C for 24 hours. The next day, each Example compound dissolved and diluted in DMSO across 4 to 5 concentration ranges and a negative control group (DMSO-treated group) were added to the 6-wells, and the HCC70 breast cancer cells were treated for 8 hours while the MKN45 gastric cancer cells were treated with the compounds for 8 hours or 24 hours. After completion of the compound treatment, the medium was removed, each cell was washed with PBS, and then 100 µL of RIPA buffer for cell lysis was added to each 6-well to collect cell lysates. The protein concentration of the cell lysates was quantified by the […], and loading buffer was added to adjust the protein concentration to 30 µg, followed by reaction at 85 °C for 10 minutes, centrifugation, and standing at room temperature. After electrophoresis on a 4-12 % Bis-Tris gel, proteins were transferred to a nitrocellulose membrane. Primary antibodies, Cyclin K (1:1000, Bethyl Lab) and Vinculin (1:1000, Sigma), were attached to the membrane, respectively, and then labeled using a secondary antibody (1:10000, LI-COR).
For orientation: A western blot detects proteins with antibodies after separation by electrophoresis.

For assay [3], the system named is BT-20 cells. The assay can be described thus: Breast cancer cell proliferation inhibitory activity, BT-20. The following applies: Homo sapiens, 72 hours, CellTiter Glo, relative IC50. How it is done: (§3) Experiments were conducted using three types of breast cancer cell lines to measure the cell proliferation inhibitory ability of each Example compound. For HCC70 cells, 100 µL of cell suspension was dispensed into a 96-well plate using RPMI1640 (Invitrogen) medium containing 10 % FBS, followed by incubation in a cell incubator at 37 °C and 5 % CO2. For BT-20 cells, 100 µL of cell suspension was dispensed into a 96-well plate using EMEM (Invitrogen) medium containing 10 % FBS, followed by incubation in a cell incubator at 37 °C and 5 % CO2. For MDA-MB-436 cells, 100 µL of cell suspension was dispensed into a 96-well plate using L-15 (Invitrogen) medium containing 10 % FBS, followed by incubation in a cell incubator at 37 °C and 0 % CO2. The next day, each Example compound dissolved and diluted in DMSO across 9 concentration ranges and a DMSO control group were treated on the cells for 72 hours. After completion of the compound treatment, 100 µL of CellTiter Glo (Promega) reagent was added to each well of the 96-wellplate, followed by shaking for 10 minutes and standing at room temperature for 10 minutes. After inserting the 96-well plate into an Envision plate reader (PerkinElmer), luminescence signals were measured. Relative IC50 values were calculated by fitting a dose-response curve using XL fit (IDBS Ltd) software.
(§4) The breast cancer cell proliferation inhibitory activities of the Example compounds measured by the method described above were evaluated according to the following criteria, and the results are presented in Table 15.
(In general: In ATP-based viability assays light output follows the ATP content of the culture.)

Assay [4] deals with MDA-MB-436 cells. The assay can be described thus: Breast cancer cell proliferation inhibitory activity, MDA-MB-436. The following applies: Homo sapiens, 72 hours, CellTiter Glo, relative IC50. How it is done:
as §3, §4

The test system of assay [5] is SNU-1. The assay can be described thus: Gastric cancer cell proliferation inhibitory activity (CellTiter Glo), SNU-1. As to conditions: Homo sapiens, SNU1, 72 hours, relative IC50. Here is the method: as §1, §2

For `CN1CCN(c2cc(NCc3nc4ccc(F)c(F)c4[nH]3)c3ncc(C(F)(F)F)n3n2)CC1` [Example 8, N-((6,7-difluoro-1H-benzo[d]imidazol-2-yl)methyl)-6-(4-methylpiperazin-1-yl)-3-(trifluoromethyl)imidazo[1,2-b]pyridazin-8-amine], the IC50 in assay [1] is at most 200 nM; in assay [3], at most 50 nM; in assay [4] it was at most 50 nM; in assay [5], at most 200 nM. The “Cyclin K degradation ability” value in assay [2] is given as “strongly degrade Cyclin K”.

Turning to `CN1CCN(c2cc(NCc3nc4cc(Cl)c(Cl)cc4[nH]3)c3ncc(C(F)(F)F)n3n2)CC1` [Example 29, N-((5,6-dichloro-1H-benzo[d]imidazol-2-yl)methyl)-6-(4-methylpiperazin-1-yl)-3-(trifluoromethyl)imidazo[1,2-b]pyridazin-8-amine], the IC50 in assay [1] was at most 200 nM; in assay [3], at most 50 nM; in assay [4], at most 50 nM; in assay [5] it was at most 200 nM.

Regarding `N#CC1CN(c2cc(NCc3nc4cc(Cl)c(Cl)cc4[nH]3)c3ncc(C(F)(F)F)n3n2)C1` [Example 30, 1-(8-(((5,6-dichloro-1H-benzol[d]imidazol-2-yl)methyl)amino)-3-(trifluoromethyl)imidazo[1,2-b]pyridazin-6-yl)azetidine-3-carbonitrile], the IC50 in assay [1] was at most 200 nM; in assay [3], at most 50 nM; in assay [4] it was at most 50 nM; in assay [5], at most 200 nM. For the same compound, the “Cyclin K degradation ability” value in assay [2] is “strongly degrade Cyclin K”.

In the case of `Nc1ncc(-c2cc(NCc3nc4cc(Cl)c(Cl)cc4[nH]3)c3ncc(C(F)(F)F)n3n2)cn1` [Example 40], the “Cyclin K degradation ability” value in assay [2] is listed as “strongly degrade Cyclin K”.

As usually defined, the IC50 is the concentration at which inhibition is half-maximal.

Source of the values: patent EP4813991A1 (iLeadBMS Co., Ltd., priority 2023, dated 2025).
